Data: the supplement of paper PMC10307832

Key:
Experiment in all cases: relative viability (nuclei count vs DMSO), 5 days (fraction); higher = more cells survive
COR-L 105 = tested on: COR-L 105
Summary of the method: (§1)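 Lung cancer cell lines in 1536-well plates were dosed by pin tool the day after seeding, either with one drug alone or with a fixed anchor-drug dose plus five library-drug doses (not always all listed) in √10 steps. After 5 days, cells were fixed and their nuclei stained in one step (final 0.05% Triton X-100, 1% formaldehyde, 1 ug/ml Hoechst), then counted on 4× images. Relative viability is the nuclei count in treated wells divided by that in vehicle wells. Values are medians of duplicate plates.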

COR-L23 = tested on: COR-L23
Summary of the method: as §1

HARA = tested on: HARA
Summary of the method: as §1

HCC-15 = tested on: HCC-15
Summary of the method: as §1

HOP-62 = tested on: HOP-62
Summary of the method: as §1

NCI-H1355 = tested on: NCI-H1355
Summary of the method: as §1

NCI-H1395 = tested on: NCI-H1395
Summary of the method: as §1

NCI-H1734 = tested on: NCI-H1734
Summary of the method: as §1

NCI-H1755 = tested on: NCI-H1755
Summary of the method: as §1

NCI-H1792 = tested on: NCI-H1792
Summary of the method: as §1

NCI-H1793 = tested on: NCI-H1793
Summary of the method: as §1

NCI-H1993 = tested on: NCI-H1993
Summary of the method: as §1

NCI-H2009 = tested on: NCI-H2009
Summary of the method: as §1

NCI-H2170 = tested on: NCI-H2170
Summary of the method: as §1

NCI-H2228 = tested on: NCI-H2228
Summary of the method: as §1

NCI-H2347 = tested on: NCI-H2347
Summary of the method: as §1

NCI-H358 = tested on: NCI-H358
Summary of the method: as §1

NCI-H522 = tested on: NCI-H522
Summary of the method: as §1

NCI-H647 = tested on: NCI-H647
Summary of the method: as §1

NCI-H838 = tested on: NCI-H838
Summary of the method: as §1

SK-MES-1 = tested on: SK-MES-1
Summary of the method: as §1

UMC-11 = tested on: UMC-11
Summary of the method: as §1

Compound CC(=O)O[C@@]12CO[C@@H]1C[C@H](O)[C@@]1(C)C(=O)[C@H](O)C3=C(C)[C@@H](OC(=O)[C@H](O)[C@@H](NC(=O)OC(C)(C)C)c4ccccc4)C[C@@](O)([C@@H](OC(=O)c4ccccc4)[C@H]21)C3(C)C [Docetaxel] + CCNC(=O)c1noc(-c2cc(C(C)C)c(O)cc2O)c1-c1ccc(CN2CCOCC2)cc1 [Luminespib] (partner 0.01 µM) has a relative viability (COR-L 105; first compound 0.0002 µM) of 0.99, a relative viability (COR-L 105; first compound 0.000632 µM) of 0.713 and a relative viability (COR-L 105; first compound 0.002 µM) of 0.531. The relative viability (COR-L 105; first compound 0.006325 µM) was 0.595, the relative viability (COR-L 105; first compound 0.02 µM) was 0.305 and the relative viability (COR-L23; first compound 0.0002 µM) was 0.632. For the same compound, the relative viability (COR-L23; first compound 0.000632 µM) was 0.622, the relative viability (COR-L23; first compound 0.002 µM) was 0.131 and the relative viability (COR-L23; first compound 0.006325 µM) was 0.128. It also gave a relative viability (COR-L23; first compound 0.02 µM) of 0.101, a relative viability (HARA; first compound 0.0002 µM) of 0.46 and a relative viability (HARA; first compound 0.000632 µM) of 0.124. It also gave a relative viability (HARA; first compound 0.002 µM) of 0.0629, a relative viability (HARA; first compound 0.006325 µM) of 0.0587 and a relative viability (HARA; first compound 0.02 µM) of 0.0441. It also gave a relative viability (HCC-15; first compound 0.0002 µM) of 0.35, a relative viability (HCC-15; first compound 0.000632 µM) of 0.303 and a relative viability (HCC-15; first compound 0.002 µM) of 0.173. It also gave a relative viability (HCC-15; first compound 0.006325 µM) of 0.182, a relative viability (HCC-15; first compound 0.02 µM) of 0.12 and a relative viability (HOP-62; first compound 0.0002 µM) of 0.938. It also gave a relative viability (HOP-62; first compound 0.000632 µM) of 0.744, a relative viability (HOP-62; first compound 0.002 µM) of 0.509 and a relative viability (HOP-62; first compound 0.006325 µM) of 0.282. The relative viability (NCI-H1355; first compound 0.0002 µM) was 0.784, the relative viability (NCI-H1355; first compound 0.000632 µM) was 0.66 and the relative viability (NCI-H1355; first compound 0.002 µM) was 0.599. It also gave a relative viability (NCI-H1355; first compound 0.006325 µM) of 0.255, a relative viability (NCI-H1355; first compound 0.02 µM) of 0.194 and a relative viability (NCI-H1395; first compound 0.0002 µM) of 0.699. For the same compound, the relative viability (NCI-H1395; first compound 0.000632 µM) was 0.771, the relative viability (NCI-H1395; first compound 0.002 µM) was 0.496 and the relative viability (NCI-H1395; first compound 0.006325 µM) was 0.391. It also gave a relative viability (NCI-H1395; first compound 0.02 µM) of 0.286, a relative viability (NCI-H1734; first compound 0.0002 µM) of 0.213 and a relative viability (NCI-H1734; first compound 0.000632 µM) of 0.197. It also gave a relative viability (NCI-H1734; first compound 0.002 µM) of 0.175, a relative viability (NCI-H1734; first compound 0.006325 µM) of 0.161 and a relative viability (NCI-H1734; first compound 0.02 µM) of 0.14. For the same compound, the relative viability (NCI-H1755; first compound 0.0002 µM) was 0.427, the relative viability (NCI-H1755; first compound 0.000632 µM) was 0.492 and the relative viability (NCI-H1755; first compound 0.002 µM) was 0.271. It also gave a relative viability (NCI-H1755; first compound 0.006325 µM) of 0.218, a relative viability (NCI-H1755; first compound 0.02 µM) of 0.151 and a relative viability (NCI-H1792; first compound 0.0002 µM) of 0.43. The relative viability (NCI-H1792; first compound 0.000632 µM) was 0.374, the relative viability (NCI-H1792; first compound 0.002 µM) was 0.382 and the relative viability (NCI-H1792; first compound 0.006325 µM) was 0.338. For the same compound, the relative viability (NCI-H1792; first compound 0.02 µM) was 0.212, the relative viability (NCI-H1793; first compound 0.0002 µM) was 0.174 and the relative viability (NCI-H1793; first compound 0.002 µM) was 0.238. It also gave a relative viability (NCI-H1793; first compound 0.006325 µM) of 0.177, a relative viability (NCI-H1793; first compound 0.02 µM) of 0.134 and a relative viability (NCI-H1993; first compound 0.0002 µM) of 0.771. The relative viability (NCI-H1993; first compound 0.000632 µM) was 0.783, the relative viability (NCI-H1993; first compound 0.002 µM) was 0.616 and the relative viability (NCI-H1993; first compound 0.006325 µM) was 0.481. The relative viability (NCI-H1993; first compound 0.02 µM) was 0.446, the relative viability (NCI-H2009; first compound 0.0002 µM) was 0.979 and the relative viability (NCI-H2009; first compound 0.000632 µM) was 1.09. It also gave a relative viability (NCI-H2009; first compound 0.002 µM) of 0.956, a relative viability (NCI-H2009; first compound 0.006325 µM) of 0.78 and a relative viability (NCI-H2009; first compound 0.02 µM) of 0.261. It also gave a relative viability (NCI-H2170; first compound 0.0002 µM) of 0.726, a relative viability (NCI-H2170; first compound 0.000632 µM) of 0.704 and a relative viability (NCI-H2170; first compound 0.002 µM) of 0.451. The relative viability (NCI-H2170; first compound 0.006325 µM) was 0.261, the relative viability (NCI-H2170; first compound 0.02 µM) was 0.148 and the relative viability (NCI-H2228; first compound 0.0002 µM) was 0.146. For the same compound, the relative viability (NCI-H2228; first compound 0.000632 µM) was 0.145, the relative viability (NCI-H2228; first compound 0.002 µM) was 0.129 and the relative viability (NCI-H2228; first compound 0.006325 µM) was 0.194. The relative viability (NCI-H2228; first compound 0.02 µM) was 0.19, the relative viability (NCI-H2347; first compound 0.0002 µM) was 0.513 and the relative viability (NCI-H2347; first compound 0.000632 µM) was 0.631. For the same compound, the relative viability (NCI-H2347; first compound 0.002 µM) was 0.39, the relative viability (NCI-H2347; first compound 0.006325 µM) was 0.311 and the relative viability (NCI-H2347; first compound 0.02 µM) was 0.34. The relative viability (NCI-H358; first compound 0.0002 µM) was 0.314, the relative viability (NCI-H358; first compound 0.000632 µM) was 0.305 and the relative viability (NCI-H358; first compound 0.002 µM) was 0.135. The relative viability (NCI-H358; first compound 0.006325 µM) was 0.12, the relative viability (NCI-H358; first compound 0.02 µM) was 0.098 and the relative viability (NCI-H522; first compound 0.0002 µM) was 1.19. It also gave a relative viability (NCI-H522; first compound 0.000632 µM) of 1.02, a relative viability (NCI-H522; first compound 0.002 µM) of 0.703 and a relative viability (NCI-H522; first compound 0.006325 µM) of 0.419. For the same compound, the relative viability (NCI-H522; first compound 0.02 µM) was 0.357, the relative viability (NCI-H647; first compound 0.0002 µM) was 0.112 and the relative viability (NCI-H647; first compound 0.000632 µM) was 0.126. It also gave a relative viability (NCI-H647; first compound 0.002 µM) of 0.147, a relative viability (NCI-H647; first compound 0.006325 µM) of 0.12 and a relative viability (NCI-H647; first compound 0.02 µM) of 0.0798. It also gave a relative viability (NCI-H838; first compound 0.0002 µM) of 0.389, a relative viability (NCI-H838; first compound 0.000632 µM) of 0.3 and a relative viability (NCI-H838; first compound 0.002 µM) of 0.138. For the same compound, the relative viability (NCI-H838; first compound 0.006325 µM) was 0.147, the relative viability (NCI-H838; first compound 0.02 µM) was 0.112 and the relative viability (SK-MES-1; first compound 0.0002 µM) was 0.695. It also gave a relative viability (SK-MES-1; first compound 0.000632 µM) of 0.618, a relative viability (SK-MES-1; first compound 0.002 µM) of 0.267 and a relative viability (SK-MES-1; first compound 0.02 µM) of 0.163. The relative viability (UMC-11; first compound 0.0002 µM) was 1.02, the relative viability (UMC-11; first compound 0.000632 µM) was 0.917 and the relative viability (UMC-11; first compound 0.002 µM) was 0.406. It also gave a relative viability (UMC-11; first compound 0.006325 µM) of 0.271 and a relative viability (UMC-11; first compound 0.02 µM) of 0.183.
